From patent US6653455B1, “Crystallization of doxorubicin hydrochloride” (Mercian Corporation, priority 1998, dated 2003)
Counter-ions that a name gives are not always drawn. Marks after values point to notes of the source that are not given here.

Assay: Hygroscopicity, cup method (weight change)
Type: physicochemical
Conditions: weight-increasing rate, 25° C., 50 to 60% RH, 15 minutes; crystals dried at 40° C. under vacuum; hydrochloride
Description: Determined by the following cup method. To be specific, about 15 to 20 mg of the sample was put in a cylindrical cup having a diameter of 6 mm and a depth of 6 mm and left standing at a fixed temperature (25° C.) and relative humidity (50 to 60% RH) for 15 minutes to measure a weight change, whereby the hygroscopicity was evaluated.
In the following respective examples, a weight-increasing rate of 0.40% or more is shown by an evaluation criterion that the hygroscopicity is large (−); a weight-increasing rate of 0.20% or more and less than 0.40% is shown by an evaluation criterion that the hygroscopicity is ;intermediate (±); and a weight-increasing rate of less than 0.20% is shown by an evaluation criterion that the hygroscopicity is small: (+).

Compound | Hygroscopicity
COc1cccc2c1C(=O)c1c(O)c3c(c(O)c1C2=O)C[C@@](O)(C(=O)CO)C[C@@H]3O[C@H]1C[C@H](N)[C@H](O)[C@H](C)O1 [Example 35, doxorubicin hydrochloride] | ± (a weight-increasing rate of 0.20% or more and less than 0.40% is shown by an evaluation criterion that the hygroscopicity is ;intermediate (±))
COc1cccc2c1C(=O)c1c(O)c3c(c(O)c1C2=O)C[C@@](O)(C(=O)CO)C[C@@H]3O[C@H]1C[C@H](N)[C@H](O)[C@H](C)O1 [Example 38, doxorubicin hydrochloride] | + (a weight-increasing rate of less than 0.20% is shown by an evaluation criterion that the hygroscopicity is small: (+))
COc1cccc2c1C(=O)c1c(O)c3c(c(O)c1C2=O)C[C@@](O)(C(=O)CO)C[C@@H]3O[C@H]1C[C@H](N)[C@H](O)[C@H](C)O1 [Example 40, doxorubicin hydrochloride] | ± (a weight-increasing rate of 0.20% or more and less than 0.40% is shown by an evaluation criterion that the hygroscopicity is ;intermediate (±))
COc1cccc2c1C(=O)c1c(O)c3c(c(O)c1C2=O)C[C@@](O)(C(=O)CO)C[C@@H]3O[C@H]1C[C@H](N)[C@H](O)[C@H](C)O1 [Example 42, doxorubicin hydrochloride] | + (a weight-increasing rate of less than 0.20% is shown by an evaluation criterion that the hygroscopicity is small: (+))
COc1cccc2c1C(=O)c1c(O)c3c(c(O)c1C2=O)C[C@@](O)(C(=O)CO)C[C@@H]3O[C@H]1C[C@H](N)[C@H](O)[C@H](C)O1 [Example 44, doxorubicin hydrochloride] | + (a weight-increasing rate of less than 0.20% is shown by an evaluation criterion that the hygroscopicity is small: (+))
COc1cccc2c1C(=O)c1c(O)c3c(c(O)c1C2=O)C[C@@](O)(C(=O)CO)C[C@@H]3O[C@H]1C[C@H](N)[C@H](O)[C@H](C)O1 [Example 45, doxorubicin hydrochloride] | + (a weight-increasing rate of less than 0.20% is shown by an evaluation criterion that the hygroscopicity is small: (+))
COc1cccc2c1C(=O)c1c(O)c3c(c(O)c1C2=O)C[C@@](O)(C(=O)CO)C[C@@H]3O[C@H]1C[C@H](N)[C@H](O)[C@H](C)O1 [Example 47, doxorubicin hydrochloride] | ± (a weight-increasing rate of 0.20% or more and less than 0.40% is shown by an evaluation criterion that the hygroscopicity is ;intermediate (±))
COc1cccc2c1C(=O)c1c(O)c3c(c(O)c1C2=O)C[C@@](O)(C(=O)CO)C[C@@H]3O[C@H]1C[C@H](N)[C@H](O)[C@H](C)O1 [Example 48, doxorubicin hydrochloride] | + (a weight-increasing rate of less than 0.20% is shown by an evaluation criterion that the hygroscopicity is small: (+))
COc1cccc2c1C(=O)c1c(O)c3c(c(O)c1C2=O)C[C@@](O)(C(=O)CO)C[C@@H]3O[C@H]1C[C@H](N)[C@H](O)[C@H](C)O1 [Example 49, doxorubicin hydrochloride] | + (a weight-increasing rate of less than 0.20% is shown by an evaluation criterion that the hygroscopicity is small: (+))
COc1cccc2c1C(=O)c1c(O)c3c(c(O)c1C2=O)C[C@@](O)(C(=O)CO)C[C@@H]3O[C@H]1C[C@H](N)[C@H](O)[C@H](C)O1 [Example 59, doxorubicin hydrochloride] | − (a weight-increasing rate of 0.40% or more is shown by an evaluation criterion that the hygroscopicity is large (−))

Assay: Average particle diameter, microscopic method (Heywood circle-corresponding diameter)
Type: physicochemical
Conditions: 10 typical crystals on photograph, hydrochloride
From the text: The average particle diameter is shown by a diameter of a circle having the same area as an injected area of the particle, a so-called Heywood diameter (circle-corresponding diameter) according to a microscopic method (injected image). A small amount of the crystals was put on a slide glass, and 1 to 2 drops of a hydrophilic surfactant (sesquioleic acid sorbitan) were fallen thereon to disperse them. It was photographed by means of a polarization microscope (photographing lens: 3.3 magnifications, objective lens: 20 magnifications) equipped with a photographing device. Optional 10 pieces of the typical crystals were selected on the photograph to measure a long diameter and a short diameter thereof An (projected) area of the particle was shown by long diameter×short diameter, and the particle diameter was shown by a diameter of a circle having the same area as that obtained above.

Average particle diameter | Compound
20 μm | COc1cccc2c1C(=O)c1c(O)c3c(c(O)c1C2=O)C[C@@](O)(C(=O)CO)C[C@@H]3O[C@H]1C[C@H](N)[C@H](O)[C@H](C)O1 [Example 35, doxorubicin hydrochloride]
28 μm | COc1cccc2c1C(=O)c1c(O)c3c(c(O)c1C2=O)C[C@@](O)(C(=O)CO)C[C@@H]3O[C@H]1C[C@H](N)[C@H](O)[C@H](C)O1 [Example 38, doxorubicin hydrochloride]
18 μm | COc1cccc2c1C(=O)c1c(O)c3c(c(O)c1C2=O)C[C@@](O)(C(=O)CO)C[C@@H]3O[C@H]1C[C@H](N)[C@H](O)[C@H](C)O1 [Example 40, doxorubicin hydrochloride]
34 μm | COc1cccc2c1C(=O)c1c(O)c3c(c(O)c1C2=O)C[C@@](O)(C(=O)CO)C[C@@H]3O[C@H]1C[C@H](N)[C@H](O)[C@H](C)O1 [Example 42, doxorubicin hydrochloride]
28 μm | COc1cccc2c1C(=O)c1c(O)c3c(c(O)c1C2=O)C[C@@](O)(C(=O)CO)C[C@@H]3O[C@H]1C[C@H](N)[C@H](O)[C@H](C)O1 [Example 44, doxorubicin hydrochloride]
46 μm | COc1cccc2c1C(=O)c1c(O)c3c(c(O)c1C2=O)C[C@@](O)(C(=O)CO)C[C@@H]3O[C@H]1C[C@H](N)[C@H](O)[C@H](C)O1 [Example 45, doxorubicin hydrochloride]
60 μm | COc1cccc2c1C(=O)c1c(O)c3c(c(O)c1C2=O)C[C@@](O)(C(=O)CO)C[C@@H]3O[C@H]1C[C@H](N)[C@H](O)[C@H](C)O1 [Example 47, doxorubicin hydrochloride]
89 μm | COc1cccc2c1C(=O)c1c(O)c3c(c(O)c1C2=O)C[C@@](O)(C(=O)CO)C[C@@H]3O[C@H]1C[C@H](N)[C@H](O)[C@H](C)O1 [Example 48, doxorubicin hydrochloride]
71 μm | COc1cccc2c1C(=O)c1c(O)c3c(c(O)c1C2=O)C[C@@](O)(C(=O)CO)C[C@@H]3O[C@H]1C[C@H](N)[C@H](O)[C@H](C)O1 [Example 49, doxorubicin hydrochloride]
<4 μm | COc1cccc2c1C(=O)c1c(O)c3c(c(O)c1C2=O)C[C@@](O)(C(=O)CO)C[C@@H]3O[C@H]1C[C@H](N)[C@H](O)[C@H](C)O1 [Example 59, doxorubicin hydrochloride]

Same assay, conditions: 10 typical crystals on photograph, listed as DXR.USP standard product (Lot J), hydrochloride

Average particle diameter | Compound
28 μm | COc1cccc2c1C(=O)c1c(O)c3c(c(O)c1C2=O)C[C@@](O)(C(=O)CO)C[C@@H]3O[C@H]1C[C@H](N)[C@H](O)[C@H](C)O1 [DXR.USP (comparison), doxorubicin hydrochloride]

Assay: Solubility test (dissolving time in water)
Type: physicochemical
Conditions: 50 mg sample in 5 ml water, 25° C., about 600 rounds/minute stirring, time until completely dissolved; hydrochloride
Description: A beaker of 20 ml (minor diameter: 30 mm) was charged with 5 ml of water and then 50 mg of a DOX.HCl crystal sample, and the sample was stirred at 25° C. and about 600 rounds/minute by means of a magnetic stirrer (diameter 6 mm×length 10 mm). Time consumed until the sample was completely dissolved was measured wile observing the dissolving state every 30 seconds with naked eyes.
The solubility test described above was carried out for a DXR.USP standard product (Lot J) (average particle diameter: 28 μm) as comparison and Examples 2, 46,51, 55, 56, 57 and 58, and the results thereof are shown in Table III.

Dissolving time | Compound
3-3.5* minute | COc1cccc2c1C(=O)c1c(O)c3c(c(O)c1C2=O)C[C@@](O)(C(=O)CO)C[C@@H]3O[C@H]1C[C@H](N)[C@H](O)[C@H](C)O1 [DXR.USP (comparison), doxorubicin hydrochloride]
